Measurements taken from publication PMC7531004, “Discovery of gramicidin A analogues with altered activities by multidimensional screening of a one-bead-one-compound library” (Nature Communications, 2020).
Where a SMILES comes first, the peptide text is derived from it. [ ]: non-standard residue; d: D form. The star is where a group is joined. NHCH2CH2OH = OCCN*; For = O=C*

How the values were obtained:
[1] = system: P388 mouse leukemia cells; details: 92 h
In short: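 First, library peptide stocks are diluted 250-fold in RPMI1640 with 10% heat-inactivated FBS. Next, they are mixed with P388 cells to give 1 × 10^4 cells/mL and incubated 92 h at 37 °C, 5% CO2. Finally, viability (%) is scored by WST-1 absorbance at 415 nm.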

[2] = H+/Na+ transport assay of bead-derived peptides (one-point); type: biochemical; design: key: relative activity; mean of two control wells = 1.00; details: bead-derived peptide solution, EYPC/EYPG LUVs;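 note: relative to parent gramicidin A activity set to 1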
In short: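 Values are normalized fluorescence, with Triton X-100 defining 100% and untreated LUVs 0%, and the two control wells averaging 1.00. Vesicles carried 1.0 mM pyranine and included egg yolk phosphatidylglycerol. Peptides were incubated with them 30 min at room temperature.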

[3] = system: Streptococcus pyogenes SSI-9; assay: Antibacterial activity assay of bead-derived peptides (three concentrations); type: cell-based; design: key: +++: inhibition by the 640-fold diluted peptide solution; ++: inhibition by the 160-fold diluted solution; +: inhibition by the 40-fold diluted solution; -: no inhibition; details: S. pyogenes, bead-derived peptide solution, three concentrations
In short: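 Bead-derived library peptide stocks in DMSO were tested undiluted and after 4- and 16-fold DMSO dilution against S. pyogenes SSI-9 (2 × 10^5 CFU/well) in cation-adjusted Mueller Hinton Broth with 5% laked horse blood. After 18 h at 37 °C, wells were scored for precipitation of grown cells.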

SMILES | cell viability/% [1] [%] | H+/Na+ transport activity normalized against the value of 1 (1.00) [2] | antibacterial activity [3]
CC(C)C[C@@H](NC(=O)[C@H](Cc1c[nH]c2ccccc12)NC(=O)[C@H](NC(=O)[C@@H](NC(=O)[C@H](NC(=O)[C@H](C)NC(=O)[C@H](NC(=O)[C@H](C)NC(=O)CNC(=O)[C@@H](NC=O)C(C)C)[C@H](C)O)C(C)C)C(C)C)C(C)C)C(=O)N[C@@H](Cc1c[nH]c2ccccc12)C(=O)N[C@@H](C(=O)N[C@@H](Cc1c[nH]c2ccccc12)C(=O)N[C@@H](C(=O)N[C@@H](Cc1c[nH]c2ccccc12)C(=O)NCCO)C(C)C)C(C)C [compound 12298] (For-VGA[dT]A[dV]V[dV]W[dL]W[dV]W[dV]W-NHCH2CH2OH) | 100.0 | 1.04 | -
CNC(=O)C[C@@H](NC(=O)[C@@H](NC(=O)[C@@H](CC(C)C)NC(=O)[C@H](C)NC(=O)[C@@H](CC(C)C)NC(=O)[C@H](C)NC(=O)CNC(=O)[C@@H](NC=O)C(C)C)C(C)C)C(=O)N[C@@H](Cc1c[nH]c2ccccc12)C(=O)N[C@@H](C(=O)N[C@@H](Cc1c[nH]c2ccccc12)C(=O)N[C@@H](C(=O)N[C@@H](Cc1c[nH]c2ccccc12)C(=O)N[C@H](CC(C)C)C(=O)N[C@@H](Cc1c[nH]c2ccccc12)C(=O)NCCO)C(C)C)C(C)C [compound 12307] (For-VGA[dL]A[dL]V[dD](NHMe)W[dV]W[dV]W[dL]W-NHCH2CH2OH) | 100.0 | 1.32 | -
CNC(=O)C[C@@H](NC(=O)[C@@H](NC(=O)[C@H](NC(=O)[C@H](C)NC(=O)[C@H](NC(=O)[C@H](C)NC(=O)CNC(=O)[C@@H](NC=O)C(C)C)C(C)C)C(C)C)C(C)C)C(=O)N[C@@H](Cc1c[nH]c2ccccc12)C(=O)N[C@H](CC(C)C)C(=O)N[C@@H](Cc1c[nH]c2ccccc12)C(=O)N[C@H](CC(C)C)C(=O)N[C@@H](Cc1c[nH]c2ccccc12)C(=O)N[C@@H](C(=O)N[C@@H](Cc1c[nH]c2ccccc12)C(=O)NCCO)C(C)C [compound 12373] (For-VGA[dV]A[dV]V[dD](NHMe)W[dL]W[dL]W[dV]W-NHCH2CH2OH) | 100.0 | 1.04 | -
CC(C)C[C@@H](NC(=O)[C@H](C)NC(=O)CNC(=O)[C@@H](NC=O)C(C)C)C(=O)N[C@@H](C)C(=O)N[C@@H](C(=O)N[C@H](C(=O)N[C@@H](C(=O)N[C@@H](Cc1c[nH]c2ccccc12)C(=O)N[C@@H](C(=O)N[C@@H](Cc1c[nH]c2ccccc12)C(=O)N[C@@H](C(=O)N[C@@H](Cc1c[nH]c2ccccc12)C(=O)N[C@@H](C(=O)N[C@@H](Cc1c[nH]c2ccccc12)C(=O)NCCO)C(C)C)C(C)C)C(C)C)[C@H](C)O)C(C)C)C(C)C [compound 12429] (For-VGA[dL]A[dV]V[dT]W[dV]W[dV]W[dV]W-NHCH2CH2OH) | 100.0 | 1.03 | -
CC(C)C[C@@H](NC(=O)[C@H](Cc1c[nH]c2ccccc12)NC(=O)[C@@H](CC(C)C)NC(=O)[C@H](Cc1c[nH]c2ccccc12)NC(=O)[C@H](NC(=O)[C@H](Cc1c[nH]c2ccccc12)NC(=O)[C@@H](CC(C)C)NC(=O)[C@@H](NC(=O)[C@H](NC(=O)[C@H](C)NC(=O)[C@H](NC(=O)[C@H](C)NC(=O)CNC(=O)[C@@H](NC=O)C(C)C)C(C)C)C(C)C)C(C)C)C(C)C)C(=O)N[C@@H](Cc1c[nH]c2ccccc12)C(=O)NCCO [compound 12538] (For-VGA[dV]A[dV]V[dL]W[dV]W[dL]W[dL]W-NHCH2CH2OH) | 2.1 | 1.01 | -
CNC(=O)C[C@@H](NC(=O)[C@@H](NC(=O)[C@@H](CC(C)C)NC(=O)[C@H](C)NC(=O)[C@H](NC(=O)[C@H](C)NC(=O)CNC(=O)[C@@H](NC=O)C(C)C)C(C)C)C(C)C)C(=O)N[C@@H](Cc1c[nH]c2ccccc12)C(=O)N[C@@H](C(=O)N[C@@H](Cc1c[nH]c2ccccc12)C(=O)N[C@@H](C(=O)N[C@@H](Cc1c[nH]c2ccccc12)C(=O)N[C@@H](C(=O)N[C@@H](Cc1c[nH]c2ccccc12)C(=O)NCCO)C(C)C)C(C)C)C(C)C [compound 12576] (For-VGA[dV]A[dL]V[dD](NHMe)W[dV]W[dV]W[dV]W-NHCH2CH2OH) | 100.0 | 1.09 | -
CC(C)C[C@@H](NC(=O)[C@H](Cc1c[nH]c2ccccc12)NC(=O)[C@H](NC(=O)[C@H](Cc1c[nH]c2ccccc12)NC(=O)[C@H](NC(=O)[C@H](Cc1c[nH]c2ccccc12)NC(=O)[C@H](NC(=O)[C@@H](NC(=O)[C@H](NC(=O)[C@H](C)NC(=O)[C@H](NC(=O)[C@H](C)NC(=O)CNC(=O)[C@@H](NC=O)C(C)C)C(C)C)C(C)C)C(C)C)C(C)C)C(C)C)C(C)C)C(=O)N[C@@H](Cc1c[nH]c2ccccc12)C(=O)NCCO [compound 12606] (For-VGA[dV]A[dV]V[dV]W[dV]W[dV]W[dL]W-NHCH2CH2OH) | 100.0 | 1.05 | -
CNC(=O)C[C@@H](NC(=O)[C@@H](NC(=O)[C@H](NC(=O)[C@H](C)NC(=O)[C@@H](CC(C)C)NC(=O)[C@H](C)NC(=O)CNC(=O)[C@@H](NC=O)C(C)C)C(C)C)C(C)C)C(=O)N[C@@H](Cc1c[nH]c2ccccc12)C(=O)N[C@@H](C(=O)N[C@@H](Cc1c[nH]c2ccccc12)C(=O)N[C@@H](C(=O)N[C@@H](Cc1c[nH]c2ccccc12)C(=O)N[C@H](CC(C)C)C(=O)N[C@@H](Cc1c[nH]c2ccccc12)C(=O)NCCO)C(C)C)C(C)C [compound 12636] (For-VGA[dL]A[dV]V[dD](NHMe)W[dV]W[dV]W[dL]W-NHCH2CH2OH) | 100.0 | 1.21 | -
CNC(=O)C[C@@H](NC(=O)[C@@H](NC(=O)[C@@H](CC(C)C)NC(=O)[C@H](C)NC(=O)[C@H](NC(=O)[C@H](C)NC(=O)CNC(=O)[C@@H](NC=O)C(C)C)C(C)C)C(C)C)C(=O)N[C@@H](Cc1c[nH]c2ccccc12)C(=O)N[C@H](CC(C)C)C(=O)N[C@@H](Cc1c[nH]c2ccccc12)C(=O)N[C@@H](C(=O)N[C@@H](Cc1c[nH]c2ccccc12)C(=O)N[C@H](CC(C)C)C(=O)N[C@@H](Cc1c[nH]c2ccccc12)C(=O)NCCO)C(C)C [compound 12687] (For-VGA[dV]A[dL]V[dD](NHMe)W[dL]W[dV]W[dL]W-NHCH2CH2OH) | 100.0 | 1.29 | -
CNC(=O)C[C@@H](NC(=O)[C@H](Cc1c[nH]c2ccccc12)NC(=O)[C@H](NC(=O)[C@H](Cc1c[nH]c2ccccc12)NC(=O)[C@H](NC(=O)[C@H](Cc1c[nH]c2ccccc12)NC(=O)[C@@H](CC(C)C)NC(=O)[C@@H](NC(=O)[C@H](NC(=O)[C@H](C)NC(=O)[C@H](NC(=O)[C@H](C)NC(=O)CNC(=O)[C@@H](NC=O)C(C)C)C(C)C)C(C)C)C(C)C)C(C)C)C(C)C)C(=O)N[C@@H](Cc1c[nH]c2ccccc12)C(=O)NCCO [compound 12691] (For-VGA[dV]A[dV]V[dL]W[dV]W[dV]W[dD](NHMe)W-NHCH2CH2OH) | 100.0 | 1.11 | -
CNC(=O)C[C@@H](NC(=O)[C@@H](NC(=O)[C@@H](CC(C)C)NC(=O)[C@H](C)NC(=O)[C@H](NC(=O)[C@H](C)NC(=O)CNC(=O)[C@@H](NC=O)C(C)C)C(C)C)C(C)C)C(=O)N[C@@H](Cc1c[nH]c2ccccc12)C(=O)N[C@H](CC(C)C)C(=O)N[C@@H](Cc1c[nH]c2ccccc12)C(=O)N[C@@H](C(=O)N[C@@H](Cc1c[nH]c2ccccc12)C(=O)N[C@@H](C(=O)N[C@@H](Cc1c[nH]c2ccccc12)C(=O)NCCO)C(C)C)C(C)C [compound 12707] (For-VGA[dV]A[dL]V[dD](NHMe)W[dL]W[dV]W[dV]W-NHCH2CH2OH) | 100.0 | 1.06 | -
CC(C)C[C@@H](NC(=O)[C@H](Cc1c[nH]c2ccccc12)NC(=O)[C@H](NC(=O)[C@H](Cc1c[nH]c2ccccc12)NC(=O)[C@H](NC(=O)[C@H](Cc1c[nH]c2ccccc12)NC(=O)[C@@H](CC(C)C)NC(=O)[C@@H](NC(=O)[C@H](NC(=O)[C@H](C)NC(=O)[C@H](NC(=O)[C@H](C)NC(=O)CNC(=O)[C@@H](NC=O)C(C)C)C(C)C)C(C)C)C(C)C)C(C)C)C(C)C)C(=O)N[C@@H](Cc1c[nH]c2ccccc12)C(=O)NCCO [compound 12721] (For-VGA[dV]A[dV]V[dL]W[dV]W[dV]W[dL]W-NHCH2CH2OH) | 51.7 | 1.04 | +
CC(C)C[C@@H](NC(=O)[C@H](C)NC(=O)[C@H](NC(=O)[C@H](C)NC(=O)CNC(=O)[C@@H](NC=O)C(C)C)C(C)C)C(=O)N[C@H](C(=O)N[C@@H](C(=O)N[C@@H](Cc1c[nH]c2ccccc12)C(=O)N[C@H](CC(C)C)C(=O)N[C@@H](Cc1c[nH]c2ccccc12)C(=O)N[C@H](CC(C)C)C(=O)N[C@@H](Cc1c[nH]c2ccccc12)C(=O)N[C@@H](C(=O)N[C@@H](Cc1c[nH]c2ccccc12)C(=O)NCCO)C(C)C)C(C)C)C(C)C [compound 12789] (For-VGA[dV]A[dL]V[dV]W[dL]W[dL]W[dV]W-NHCH2CH2OH) | 9.6 | 1.04 | -
